Results reported in patent US20240101589A1, “INHIBITORS OF METTL3” (Strom Therapeutics Limited, priority 2020, published 2024).

What was measured:
Caov-3 cells = assay: Caov3 cell proliferation CTG; type: cell-based; details: Homo sapiens, treated for 120 hours, CellTiter-Glo
Method: Cell treatment and cell growth assessment: 18 hours post-seeding in white 384-Viewplate (6007480, PerkinElmer) at 1500 cells/well, Caov3 cells were treated for 120 hours with compounds inhibiting the METTL3/14 activity (10 serial semi-log dilutions, 30 μM as top concentration). Upon treatment, Coav-3 cells were incubated for 10 min at RT with the CellTiter-Glo reagent (G7571, Promega). Measurement of the luminescence signal was performed on a microplate reader (Ensight, PerkinElmer).

KASUMI-1 cells = assay: Kasumi cell proliferation CTG; type: cell-based; details: treated for 120 hours, CellTiter-Glo
Method: Cell culture: KASUMI-1 cells (ACC20, Leibniz-Institut DSMZ Deutsche Sammlung von Mikroorganismen und Zellkulturen GmbH) were grown in RPMI 1640 (31870-025, Gibco) supplemented with 20% fetal bovine serum (F1524, Gibco), 1 mM sodium pyruvate (11360-039, Gibco) and 2 mM Glutamax (35050-038, Gibco) in a 5% CO2 humidified incubator at 37° C.
Cell treatment and cell growth assessment: KASUMI-1 cells were seeded in ultra-low attachment 384-well culture plate (MS-9384WZ, SBio) at a final concentration of 250 000 cells/ml (35 μL/well) and treated for 120 hours with compounds inhibiting the METTL3/14 activity (10 serial semi-log dilutions, 30 μM as top concentration). Upon treatment, Kasumi1 cells were incubated for 10 min at RT with the CellTiter-Glo reagent (G7571, Promega). Measurement of the luminescence signal was performed on a microplate reader (Ensight, PerkinElmer).

METTL3/14 = METTL3/14 (Homo sapiens (Human), UniProt Q86U44); assay: METTL3/14 methyltransferase assay (RapidFire mass spectrometry, RFMS); type: biochemical; details: 5 nM METTL3/14, 0.2 μM RNA substrate, 0.5 μM SAM, 60 minutes at room temperature
Sequence of METTL3/14 (Q86U44 whole entry): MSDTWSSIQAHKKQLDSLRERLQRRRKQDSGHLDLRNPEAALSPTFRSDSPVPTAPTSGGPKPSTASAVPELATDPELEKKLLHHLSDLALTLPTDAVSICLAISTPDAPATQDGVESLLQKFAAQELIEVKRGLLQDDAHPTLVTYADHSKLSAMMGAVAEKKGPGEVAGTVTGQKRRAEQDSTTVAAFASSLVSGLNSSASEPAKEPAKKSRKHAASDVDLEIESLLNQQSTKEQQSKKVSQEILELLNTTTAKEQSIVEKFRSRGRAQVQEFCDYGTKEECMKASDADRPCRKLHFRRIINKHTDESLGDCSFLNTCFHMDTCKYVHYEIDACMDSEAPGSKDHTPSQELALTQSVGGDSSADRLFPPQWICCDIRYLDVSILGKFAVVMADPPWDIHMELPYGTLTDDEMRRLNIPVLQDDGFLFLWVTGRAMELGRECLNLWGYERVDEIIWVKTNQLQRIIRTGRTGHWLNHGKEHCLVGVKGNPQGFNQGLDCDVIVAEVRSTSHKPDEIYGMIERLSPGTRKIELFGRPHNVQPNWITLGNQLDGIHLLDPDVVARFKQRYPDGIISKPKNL
Sequence of METTL3/14 (Q9HCE5 whole entry partner): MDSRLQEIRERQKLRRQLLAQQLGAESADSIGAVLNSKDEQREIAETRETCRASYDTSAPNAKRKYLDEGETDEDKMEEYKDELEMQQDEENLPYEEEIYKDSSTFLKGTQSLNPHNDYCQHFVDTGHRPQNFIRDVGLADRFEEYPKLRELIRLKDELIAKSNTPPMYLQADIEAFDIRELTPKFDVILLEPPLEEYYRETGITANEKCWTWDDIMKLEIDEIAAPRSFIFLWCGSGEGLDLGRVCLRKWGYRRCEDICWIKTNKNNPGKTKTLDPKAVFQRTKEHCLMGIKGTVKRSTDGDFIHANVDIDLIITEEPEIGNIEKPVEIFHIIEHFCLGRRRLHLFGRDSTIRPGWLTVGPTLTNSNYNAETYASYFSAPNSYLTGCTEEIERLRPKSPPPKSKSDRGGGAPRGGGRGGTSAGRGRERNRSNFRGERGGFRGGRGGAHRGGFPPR
Method: The enzymatic assay was established to determine IC50 values for inhibition of RNA methyltransferase activity. The enzyme used was full-length his-tagged METTL3 co-expressed with full length FLAG-tagged METTL14 in a baculovirus expression system. Enzymatic reactions were performed at room temperature in 384-well plates using a final reaction volume of 20 μL containing 20 mM TrisCl pH 7.6, 1 mM DTT, 0.01% Tween-20. 5 nM final concentration of METTL3/14 was pre-incubated with various compound concentrations for 10 minutes, followed by addition of 0.2 μM final concentration synthetic RNA substrate (5′P-[…]-3′) and 0.5 μM final concentration S-adenosyl-methionine (SAM). The reaction was incubated for a further 60 minutes at room temperature, and then quenched by the addition of 40 μL 7.5% TCA with two internal product standards (D4-SAH and 13C10-SAH). After termination, plates were sealed, centrifuged and stored at 4° C. until analysis.
RNA methyltransferase activity was measured label free using the RapidFire™ mass spectrometry (RF/MS) platform. Stopped and stable assay plates were analyzed on the Agilent RF300 integrated autosampler/solid-phase extraction (SPE) system coupled to an ABSciex 4000 mass spectrometer for the generation of the product S-adenosyl homocysteine (SAH) and normalized to the ratio of signal of the two internal product standards, respectively. Solvent A was water containing 0.1% (v/v) TCA. Solvent B was acetonitrile/0.1% ammonium acetate (8:2, v/v). More specifically, plates were centrifuged at 4350 rpm for 10 min, samples were aspirated under vacuum for 600 ms, then loaded onto a C18 solid-phase extraction cartridge and washed for 3 s with solvent A at a flow rate of 1.5 mL/min. Retained product and internal standards were eluted with solvent B at a flow rate of 1 mL/min for 3 s and finally the cartridge was re-equilibrated with solvent A for 500 ms. The mass transition for the product (SAH) was 384.9/135.9 Da. Transitions of the two internal product standards (IS1: D4-SAH and IS2: 13C10-SAH) were 389.1/135.8 Da and 395.0/134.2 Da, respectively. Ratios of SAH/IS1 and SAH/IS2 were used for normalization of matrix effects. IC50 values were calculated based on dilution series of individual compounds. Potency of a compound was measured at varied inhibitor concentrations and normalized to control wells without RNA substrate and without inhibition (DMSO only).

SMILES | IC50 (METTL3/14) | IC50 (Caov-3 cells) | IC50 (KASUMI-1 cells; Homo sapiens, Kasumi 1, 120 h) | IC50 (KASUMI-1 cells)
Nc1ncnc2c1c(Br)cn2[C@@H]1O[C@H](/C=C/CCCNCC23CC(F)(C2)C3)[C@@H](O)[C@H]1O [Example 6] |  | 0.4 µM | 1.6 µM | 
Nc1ncnc2c1c(Br)cn2[C@@H]1C[C@H](c2ccc3cc(CNCC45CC(F)(C4)C5)[nH]c3c2)[C@@H](O)[C@H]1O [Example 11, (1R,2S,3R,5R)-3-{4-amino-5-bromo-7H-pyrrolo[2,3-d]pyrimidin-7-yl}-5-(2-{[({3-fluorobicyclo[1.1.1]pentan-1-yl}methyl)amino]methyl}-1H-indol-6-yl)cyclopentane-1,2-diol] |  | 0.25 µM | 0.95 µM | 
Nc1ncnc2c1c(Br)cn2[C@@H]1C[C@H](c2ccc(CCNCC34CC(F)(C3)C4)cc2)[C@@H](O)[C@H]1O [Example 12, (1R,2S,3R,5R)-3-{4-amino-5-bromo-7H-pyrrolo[2,3-d]pyrimidin-7-yl}-5-(4-{2-[({3-fluorobicyclo[1.1.1]pentan-1-yl}methyl)amino]ethyl}phenyl)cyclopentane-1,2-diol] | 0.0466 µM | 8.3 µM | 4.9 µM | 
Nc1ncnc2c1c(-c1cc[nH]n1)cn2[C@@H]1O[C@H](/C=C/CCCNCC23CC(F)(C2)C3)[C@@H](O)[C@H]1O [Example 20, (2R,3R,4S,5R)-2-[4-amino-5-(1H-pyrazol-3-yl)-7H-pyrrolo[2,3-d]pyrimidin-7-yl]-5-[(1E)-5-[({3-fluorobicyclo[1.1.1]pentan-1-yl}methyl)amino]pent-1-en-1-yl]oxolane-3,4-diol] | 0.0061 µM | 1.69 µM |  | 
Nc1ncnc2c1c(Br)cn2[C@H]1C[C@H](O)[C@@H](/C=C/CCCNCC23CC(F)(C2)C3)O1 [Example 22, (2R,3S,5R)-5-(4-amino-5-bromo-pyrrolo[2,3-d]pyrimidin-7-yl)-2-[(E)-5-[(3-fluoro-1-bicyclo[1.1.1]pentanyl)methylamino]pent-1-enyl]tetrahydrofuran-3-ol] | 0.0128 µM | 2.88 µM | 4.28 µM | 
Nc1ncnc2c1c(F)cn2[C@@H]1C[C@H](c2ccc3cc(CNCC45CC(F)(C4)C5)[nH]c3c2)[C@@H](O)[C@H]1O [Example 29, (1R,2S,3R,5R)-3-{4-amino-5-fluoro-7H-pyrrolo[2,3-d]pyrimidin-7-yl}-5-(2-{[{{3-fluorobicyclo[1.1.1]pentan-1-yl}methyl)amino]methyl}-1H-indol-6-yl)cyclopentane-1,2-diol] | 0.0061 µM | 1.54 µM | 2.85 µM | 
Nc1ncnc2c1c(Cl)cn2[C@@H]1C[C@H](c2ccc3cc(CNCC45CC(F)(C4)C5)[nH]c3c2)[C@@H](O)[C@H]1O [Example 30, (1R,2S,3R,5R)-3-{4-amino-5-chloro-7H-pyrrolo[2,3-d]pyrimidin-7-yl}-5-(2-{[({3-fluorobicyclo[1.1.1]pentan-1-yl}methyl)amino]methyl}-1H-indol-6-yl)cyclopentane-1,2-diol] | 0.0061 µM | 0.556 µM | 1.29 µM | 
Nc1ncnc2c1c(Br)cn2[C@@H]1C[C@H](c2ccc3[nH]c(CNCC45CC(F)(C4)C5)cc3c2)[C@@H](O)[C@H]1O [Example 31, (1R,2S,3R,5R)-3-{4-amino-5-bromo-7H-pyrrolo[2,3-d]pyrimidin-7-yl}-5-(2-{[{{3-fluorobicyclo[1.1.1]pentan-1-yl}methyl)amino]methyl}-1H-indol-5-yl)cyclopentane-1,2-diol] | 0.00824 µM | 2.65 µM | 1.93 µM | 
Nc1ncnc2c1c(Br)cn2[C@@H]1C[C@H](c2ccc3cc(CN4CCC5(CCC5)C4)[nH]c3c2)[C@@H](O)[C@H]1O [Example 32, (1R,2S,3R,5R)-3-{4-amino-5-bromo-7H-pyrrolo[2,3-d]pyrimidin-7-yl}-5-[2-({6-azaspiro[3.4]octan-6-yl}methyl)-1H-indol-6-yl]cyclopentane-1,2-diol] | 0.0061 µM | 0.551 µM | 1.23 µM | 
Nc1ncnc2c1ccn2[C@@H]1C[C@H](c2ccc3cc(CN4CCC5(CCC5)C4)[nH]c3c2)[C@@H](O)[C@H]1O [Example 33, (1R,2S,3R,5R)-3-{4-amino-7H-pyrrolo[2,3-d]pyrimidin-7-yl}-5-[2-({6-azaspiro[3.4]octan-6-yl}methyl)-1H-indol-6-yl]cyclopentane-1,2-diol] | 0.00622 µM | 0.276 µM | 1.39 µM | 
Nc1ncnc2c1c(Br)cn2[C@@H]1C[C@H](c2ccc(CN3CCC4(CCC4)C3)cc2)[C@@H](O)[C@H]1O [Example 35, (1R,2S,3R,5R)-3-{4-amino-5-bromo-7H-pyrrolo[2,3-d]pyrimidin-7-yl}-5-[4-({6-azaspiro[3.4]octan-6-yl}methyl)phenyl]cyclopentane-1,2-diol] | 0.0637 µM | 4.56 µM | 4.16 µM | 
CC1(C)CCN(Cc2ccc([C@H]3C[C@@H](n4cc(Br)c5c(N)ncnc54)[C@H](O)[C@@H]3O)cc2)CC1 [Example 36, (1R,2S,3R,5R)-3-{4-amino-5-bromo-7H-pyrrolo[2,3-d]pyrimidin-7-yl}-5-{4-[(4,4-dimethylpiperidin-1-yl)methyl]phenyl}cyclopentane-1,2-diol] | 0.103 µM | 7.75 µM | 5.27 µM | 

Continued, in another order:

IC50 (METTL3/14) | SMILES | IC50 (Caov-3 cells) | IC50 (KASUMI-1 cells; Homo sapiens, Kasumi 1, 120 h) | IC50 (KASUMI-1 cells)
0.0426 µM | Nc1ncnc2c1c(Br)cn2[C@@H]1O[C@H](/C=C/CCCNCC2CCC2)[C@@H](O)[C@H]1O [Example 2, (2R,3R,4S,5R)-2-{4-amino-5-bromo-7H-pyrrolo[2,3-d]pyrimidin-7-yl}-5-[(1E)-5-[(cyclobutylmethyl)amino]pent-1-en-1-yl]oxolane-3,4-diol] | 3.8 µM | 7.3 µM | 
0.196 µM | Nc1ncnc2c1c(Br)cn2[C@@H]1O[C@H](/C=C/CCCNCc2ccccc2)[C@@H](O)[C@H]1O [Example 5, (2R,3R,4S,5R)-2-{4-amino-5-bromo-7H-pyrrolo[2,3-d]pyrimidin-7-yl}-5-[(1E)-5-(benzylamino)pent-1-en-1-yl]oxolane-3,4-diol] | 0.33 µM |  | 0.36 µM
0.123 µM | Nc1ncnc2c1c(Br)cn2[C@@H]1O[C@H](CC/C=C/CNCc2ccccc2)[C@@H](O)[C@H]1O [Example 9, (2R,3R,4S,5R)-2-(4-amino-5-bromo-7H-pyrrolo[2,3-d]pyrimidin-7-yl)-5-((E)-5-(benzylamino)pent-3-en-1-yl)tetrahydrofuran-3,4-diol] | 5.7 µM | 4.6 µM | 
0.15 µM | Nc1ncnc2c1c(Br)cn2[C@@H]1C[C@H](c2ccc(CNCC3CCC3)cc2)[C@@H](O)[C@H]1O [Example 10, (1R,2S,3R,5R)-3-(4-amino-5-bromo-7H-pyrrolo[2,3-d]pyrimidin-7-yl)-5-(4-(((cyclobutylmethyl)amino)methyl)phenyl)cyclopentane-1,2-diol] | 6.5 µM | 4.4 µM | 
0.0239 µM | Nc1ncnc2c1c(Br)cn2[C@@H]1O[C@H](/C=C/CCCN2CCC3(CCC3)C2)[C@@H](O)[C@H]1O [Example 21] | 4.57 µM | 4.85 µM | 
0.00911 µM | Nc1ncnc2c1c(Br)cn2[C@@H]1C[C@H](c2ccc(CNCC34CC(F)(C3)C4)cc2)[C@@H](O)[C@H]1O [Example 34, (1R,2S,3R,5R)-3-{4-amino-5-bromo-7H-pyrrolo[2,3-d]pyrimidin-7-yl}-5-(4-{[({3-fluorobicyclo[1.1.1]pentan-1-yl}methyl)amino]methyl}phenyl)cyclopentane-1,2-diol] | 1.89 µM | 2.39 µM | 
